Data: patent US20110251229A1 (priority 2007, published 2011)
“Also recorded” adds a separate entry of the source.

What was measured:
[1] = test system: TLR4 mRNA; experiment: TLR4 mRNA expression in lumbar dorsal spinal cord after chronic intrathecal opioids; assay type: in vivo, rat; conditions: 15 μg intrathecal once daily for 7 days, relative to GAPDH
[2] = biological target: T1, human TLR4 (Homo sapiens, UniProt O00206); assay type: cell-based
T1 construct: host or cells: HEK 293

[3] = test system: rats with chronic constriction injury of the sciatic nerve; experiment: Chronic constriction injury (CCI)-induced allodynia, von Frey test; conditions: for reversal of established CCI-induced allodynia: delivery intrathecally or systemically; for reversal of CCI-induced allodynia: 60 mg/kg s.c.; for reversal of neuropathic pain: rat, in vivo
[4] = test system: RAW264.7 mouse macrophage cell line expressing GFP-tagged Akt1 (TLR4 signaling); assay type: cell-based
[5] = test system: HAPI microglial cell line; experiment: HAPI microglial cell line activation by LPS, mRNA; assay type: cell-based
Description: HAPI microglial cell line was used to examine the effects of (+)-naloxone on microglial activation by LPS. Whereas 100 ng/mL LPS produced elevations in mRNA for CD11b (microglial activation marker), interleukin (IL)-1b, and IL-6, 1 μM (+)-naloxone abolished each of these LPS-induced effects. See FIG. 20 (GAPDH=glyceraldehyde-3-phosphate-dehydrogenase).

[6] = test system: morphine analgesia in rats; experiment: Potentiation of acute morphine analgesia, Hargreaves test; assay type: in vivo, rat
[7] = test system: morphine-treated rats; experiment: Chronic systemic morphine & (+)-naloxone experiment (Hargreaves, precipitated withdrawal, weight); assay type: in vivo, rat
[8] = test system: astrocyte (GFAP) and microglia (CD11b/c) activation markers; experiment: Glial activation markers (GFAP, CD11b/c) in L5 spinal cord of CCI rats, immunohistochemistry; assay type: in vivo, rat; conditions: 60 μg/hr intrathecal across 4 days, vs vehicle; for CD11b/c expression: bilaterally; for GFAP expression in ipsilateral or contralateral dorsal horns: densitometry
Description: Following the final behavioral testing rats were transcardially perfused first with isotonic saline and then with fresh 4% paraformaldehyde/0.1 M phosphate buffer (4% PFA/PB, pH 7.4). After dissection and immersion post-fixation in 4% PFA/PB for an additional 24 hr, the lumbar spinal cords then dehydrated in 30% sucrose with 0.1% azide at 4° C. until slicing.
For immunohistochemistry, sections were treated to suppress endogenous peroxidase and to prevent staining of endogenous biotin. The sections were incubated in either primary mouse monoclonal anti-rat glial fibrillary acidic protein (GFAP) (1:500; to visualize astrocyte astrocyte activation; ICN Biomedicals, Costa Mesa, Calif.) or primary mouse monoclonal anti-rat OX-42 (1:500; to visualize microglial activation; BioSource, Camarillo, Calif.) for 24 hr at 4° C. The slides were then incubated in secondary biotinylated goat anti-mouse IgG antibody (1:500; Jackson ImmunoResearch, West Grove, Pa.) overnight at 4° C. Finally sections were reacted using the avidin-biotin complex procedure (ABC, Vector Elite kit; 1:100 in PBS-Triton; 2 hr; Vector laboratories, Burlingame, Calif.) and 3′,3′-diaminobenzidine (DAB; Sigma-Aldrich). Glucose oxidase (Sigma-Aldrich; type V-s; 0.02%) and beta-D-glucose (0.1%) were used to generate hydrogen peroxide. […] ammonium sulfate was added to the DAB solution (0.025% w/v) to intensify the reaction product. One series of sections was processed as described above except that the primary antibody was omitted from the incubation buffer (omission controls). The slides were dried overnight, cleared, and cover slipped.
Slides were viewed with an Olympus Vannox II bright-field microscope. Images were collected with a Cohu CCD camera coupled to an Apple PowerMac 7200 equipped with NIH Image software (version 1.60). Brightness and contrast were kept constant with the images not altered. The intensity of the light source was calibrated each day.
Representative sections (10×) of ipsilateral dorsal horns of neuropathic (CCI) rats treated intrathecally with 60 μg/hr (+)-naloxone ([…]), 60 μg/hr (−)-naloxone (FIG. 18F), and vehicle (FIG. 18G) are shown. […] Scale bar=500 μm.

[9] = about 20 μg co-administered with morphine intrathecally
[10] = 12 mg/day s.c. minipump with 6 mg/day morphine, 7 days

T1 sequence (O00206 24-839): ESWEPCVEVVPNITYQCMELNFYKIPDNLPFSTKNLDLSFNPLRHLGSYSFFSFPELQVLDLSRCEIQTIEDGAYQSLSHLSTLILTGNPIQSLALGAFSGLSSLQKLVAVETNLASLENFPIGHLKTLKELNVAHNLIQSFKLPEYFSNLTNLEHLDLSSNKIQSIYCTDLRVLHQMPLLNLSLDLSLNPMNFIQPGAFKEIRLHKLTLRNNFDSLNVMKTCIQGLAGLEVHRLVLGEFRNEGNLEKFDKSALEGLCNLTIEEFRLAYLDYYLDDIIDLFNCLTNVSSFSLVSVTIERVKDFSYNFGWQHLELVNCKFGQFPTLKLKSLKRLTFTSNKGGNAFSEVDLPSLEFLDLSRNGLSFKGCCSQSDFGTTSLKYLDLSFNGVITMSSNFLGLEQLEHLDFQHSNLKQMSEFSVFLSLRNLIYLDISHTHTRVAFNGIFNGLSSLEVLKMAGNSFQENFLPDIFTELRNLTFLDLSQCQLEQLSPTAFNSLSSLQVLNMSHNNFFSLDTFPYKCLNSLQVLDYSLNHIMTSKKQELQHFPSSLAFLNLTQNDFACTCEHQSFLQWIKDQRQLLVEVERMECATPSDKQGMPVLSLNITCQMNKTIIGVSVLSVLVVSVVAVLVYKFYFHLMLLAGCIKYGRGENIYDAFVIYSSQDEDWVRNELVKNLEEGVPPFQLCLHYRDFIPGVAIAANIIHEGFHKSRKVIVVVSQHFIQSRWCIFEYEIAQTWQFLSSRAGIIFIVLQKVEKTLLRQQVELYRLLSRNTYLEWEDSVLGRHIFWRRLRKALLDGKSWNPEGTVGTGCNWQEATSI
T1 sequence (Q9Y6Y9 17-160 partner limits assumed): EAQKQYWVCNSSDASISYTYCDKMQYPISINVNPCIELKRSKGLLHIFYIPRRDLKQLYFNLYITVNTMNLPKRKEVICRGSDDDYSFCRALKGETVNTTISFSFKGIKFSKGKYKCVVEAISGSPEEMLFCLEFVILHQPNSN

Molecule: CCC(=O)C(C[C@H](C)N(C)C)(c1ccccc1)c1ccccc1 [(+)-methadone]
- TLR4 mRNA in lumbar dorsal spinal cord [1]: significant elevation

Molecule: COc1ccc2c3c1O[C@H]1C(=O)CC[C@@]4(O)[C@@H](C2)N(C)CC[C@]314 [oxycodone, reference compound]
- TLR4 agonist activity [2]: TLR4 agonists

Molecule: (−)-naltrexone [reference compound]
- reversal of established CCI-induced allodynia [3]: reversed established CCI-induced allodynia

Molecule: CCOC(=O)C1(c2ccccc2)CCN(C)CC1 [pethadine/meperidine, meperidine, reference compound]
- TLR4 agonist activity [2]: TLR4 agonists

Molecule: C=CCN1CC[C@]23c4c5ccc(O)c4O[C@H]2C(=O)CC[C@]3(O)[C@H]1C5 [(+)-naloxone, (+)-Naloxone]
- reversal of CCI-induced allodynia ([3]; 30 min): not significantly
- reversal of CCI-induced allodynia ([3]; 90 min): reversed CCI-induced allodynia; also recorded: reversed established allodynia; also recorded: acutely reverses
- ipsilateral and contralateral mechanical allodynia ([3]; 100 mg/kg subcutaneous, 14 days after CCI): reliable attenuation
- reversal of neuropathic pain [3]: reverses neuropathic pain
- morphine-induced Akt1 response ([4]; morphine 100 μM): blocked
- LPS-induced Akt1 response ([4]; preincubation 1mM prior to LPS 7.5 μg/mL): significantly attenuated
- LPS-induced elevation in mRNA for CD11b ([5]; 1 μM with 100 ng/mL LPS): abolished
- LPS-induced elevation in mRNA for IL-6 ([5]; 1 μM with 100 ng/mL LPS): abolished
- LPS-induced elevation in mRNA for interleukin (IL)-1b ([5]; 1 μM with 100 ng/mL LPS): abolished
- morphine analgesia ([6]; 20 μg intrathecal with subcutaneous morphine 4 mg/kg): significantly potentiated; also recorded: potentiation
- morphine analgesia [6, 9]: significant potentiation of analgesia
- development of morphine-induced hyperalgesia [7, 10]: blocked the development of morphine-induced hyperalgesia
- development of tolerance [7, 10]: attenuated the development of tolerance
- morphine analgesia [7, 10]: potentiated
- weight gain [7, 10]: enabled normal weight gain
- withdrawal behaviors ([7]; withdrawal precipitated by 100 mg/kg (−)-naltrexone on day 7): reduced withdrawal behaviors
- M3G induced TLR4 signaling [2]: attenuation
- antagonism of LPS activity at TLR4 [2]: significant non-competitive antagonism; also recorded: non-competitively antagonizes
- effect on basal unstimulated SEAP expression [2]: no substantial effect
- increase in the EC50 of LPS [2]: 3 fold
- morphine induced TLR4 signaling [2]: attenuation
- reduction in the Emax of LPS [2]: 40%
- CD11b/c expression [8]: reliable suppression
- GFAP expression in ipsilateral or contralateral dorsal horns [8]: neither (+)-nor (−)-naloxone affected

Molecule: CCC(=O)C(CC(C)N(C)C)(c1ccccc1)c1ccccc1 (centres unmarked) [methadone, reference compound]
- TLR4 agonist activity [2]: TLR4 agonists

Molecule: Lipopolysaccharide [LPS, reference compound]
- clearance of GFP-Akt1 from the cytosol [4]: robust, rapid clearance
- mRNA for CD11b ([5]; 100 ng/mL): elevations
- mRNA for IL-6 ([5]; 100 ng/mL): elevations
- mRNA for interleukin (IL)-1b ([5]; 100 ng/mL): elevations
- EC50 (SEAP expression) [2]: 0.21 ng/mL
- Emax (SEAP expression) [2]: 40,956 arbitrary fluorescence units

Molecule: C=CCN1CC[C@]23c4c5ccc(O)c4O[C@H]2C(=O)CC[C@@]3(O)[C@H]1C5 [naloxone, reference compound]
- ipsilateral and contralateral allodynia ([3]; chronic intrathecal osmotic minipump, 20 or 60 ug/hr, 4-96 hr): attenuation

Molecule: O=C1CC[C@]2(O)[C@@H]3Cc4ccc(O)c5c4[C@]2(CCN3CC2CC2)[C@@H]1O5 [(+)-naltrexone]
- reversal of established CCI-induced allodynia [3]: reversed established CCI-induced allodynia
- morphine analgesia [6, 9]: significant potentiation of analgesia

Molecule: (−)-methadone
- TLR4 mRNA in lumbar dorsal spinal cord [1]: significant elevation

Molecule: CN1CC[C@]23c4c5ccc(O)c4O[C@H]2[C@@H](O[C@@H]2O[C@H](C(=O)O)[C@@H](O)[C@H](O)[C@H]2O)C=C[C@H]3[C@H]1C5 [M6G, morphine-6-glucuronide, reference compound]
- TLR4 agonist activity [2]: not found to have any significant TLR4 agonist activity

Molecule: CN1CC[C@]23c4c5ccc(O[C@@H]6O[C@H](C(=O)O)[C@@H](O)[C@H](O)[C@H]6O)c4O[C@H]2[C@@H](O)C=C[C@H]3[C@H]1C5 [M3G, morphine-3-glucuronide, reference compound]
- TLR4 agonist activity [2]: showed TLR4 agonist activity

Molecule: (−)-naloxone [reference compound]
- reversal of neuropathic pain [3]: reverses neuropathic pain
- CD11b/c expression [8]: reliable suppression
- GFAP expression in ipsilateral or contralateral dorsal horns [8]: neither (+)-nor (−)-naloxone affected
